Experimental data reported in ChEMBL document CHEMBL3608289, “Miltirone Is a Dual Inhibitor of P-Glycoprotein and Cell Growth in Doxorubicin-Resistant HepG2 Cells” (J Nat Prod, 2015).
The source made the active and inactive calls. The rule behind the calls is not given here.

Columns and labels:
HepG2 [1] = experiment: Effect on nonphosphorylated p38 MAPK level in human HepG2 cells at 25 uM by Western blot analysis; type: ADME, cell-based; details: hepg2, 25 µM
[2] = molecular target: T1, Mitogen-activated protein kinase; ERK1/ERK2 (Homo sapiens) (UniProt P27361+P28482); experiment: Inhibition of ERK1/2 phosphorylation in human HepG2 cells at 25 uM by Western blot analysis; type: cell-based
T1 sequence (P27361 whole entry, looked up): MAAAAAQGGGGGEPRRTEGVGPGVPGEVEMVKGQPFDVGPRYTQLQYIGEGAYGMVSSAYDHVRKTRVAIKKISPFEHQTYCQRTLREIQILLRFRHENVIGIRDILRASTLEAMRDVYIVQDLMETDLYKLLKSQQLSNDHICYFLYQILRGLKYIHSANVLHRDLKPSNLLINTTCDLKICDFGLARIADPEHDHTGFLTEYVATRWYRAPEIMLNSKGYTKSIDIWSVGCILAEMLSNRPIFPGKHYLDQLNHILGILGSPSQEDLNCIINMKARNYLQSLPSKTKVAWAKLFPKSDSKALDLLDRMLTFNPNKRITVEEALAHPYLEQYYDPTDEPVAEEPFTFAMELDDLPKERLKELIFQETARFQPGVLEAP
T1 sequence (P28482 whole entry, looked up): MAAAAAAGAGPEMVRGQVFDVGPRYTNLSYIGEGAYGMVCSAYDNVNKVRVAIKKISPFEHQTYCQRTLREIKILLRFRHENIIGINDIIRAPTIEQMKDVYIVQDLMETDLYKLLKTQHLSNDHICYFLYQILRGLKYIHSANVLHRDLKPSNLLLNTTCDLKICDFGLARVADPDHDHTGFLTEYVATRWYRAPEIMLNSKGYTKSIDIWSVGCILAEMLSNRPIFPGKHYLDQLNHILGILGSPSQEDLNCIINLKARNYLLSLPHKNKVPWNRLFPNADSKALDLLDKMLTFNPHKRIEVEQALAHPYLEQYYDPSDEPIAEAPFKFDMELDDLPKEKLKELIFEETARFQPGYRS

HepG2 [3] = experiment: Increase of SAPK/JNK phosphorylation in human doxorubicin-resistant HepG2 cells expressing p-gp at 25 uM by Western blot analysis; type: cell-based
HepG2 [4] = experiment: Induction of apoptosis in human HepG2 cells assessed as increase in PARP cleavage at 25 uM after 24 hrs by Western blotting; type: functional, cell-based
HepG2 [5] = experiment: Effect on nonphosphorylated p38 MAPK level in human doxorubicin-resistant HepG2 cells expressing p-gp at 25 uM by Western blot analysis; type: ADME, cell-based; details: hepg2, 25 µM
[6] = molecular target: T1, Mitogen-activated protein kinase; ERK1/ERK2 (Homo sapiens); experiment: Inhibition of ERK1/2 phosphorylation in human doxorubicin-resistant HepG2 cells expressing p-gp at 25 uM by Western blot analysis; type: cell-based
HepG2 [7] = experiment: Increase of SAPK/JNK phosphorylation in human HepG2 cells at 25 uM by Western blot analysis; type: cell-based
HepG2 [8] = experiment: Effect on nonphosphorylated ERK1/ERK2 level in human HepG2 cells at 25 uM by Western blot analysis; type: ADME, cell-based; details: hepg2, 25 µM
HepG2 [9] = experiment: Effect on nonphosphorylated ERK1/ERK2 level in human doxorubicin-resistant HepG2 cells expressing p-gp at 25 uM by Western blot analysis; type: ADME, cell-based; details: hepg2, 25 µM
HepG2 [10] = experiment: Induction of apoptosis in human HepG2 cells assessed as activation of caspase-3/8/9 at 25 uM after 24 hrs by Western blotting; type: functional, cell-based
[11] = molecular target: T2, MAP kinase p38 (Homo sapiens) (UniProt O15264+Q15759+Q16539+P53778); experiment: Inhibition of p38 MAPK phosphorylation in human doxorubicin-resistant HepG2 cells expressing p-gp at 25 uM by Western blot analysis; type: cell-based
HepG2 [12] = experiment: Induction of apoptosis in human doxorubicin-resistant HepG2 cells expressing p-gp assessed as increase in PARP cleavage at 25 uM after 24 hrs by Western blotting; type: functional, cell-based
HepG2 [13] = experiment: Effect on nonphosphorylated SAPK/JNK level in human HepG2 cells at 25 uM by Western blot analysis; type: ADME, cell-based; details: hepg2, 25 µM
[14] = molecular target: T2, MAP kinase p38 (Homo sapiens); experiment: Inhibition of p38 MAPK phosphorylation in human HepG2 cells at 25 uM by Western blot analysis; type: cell-based
HepG2 [15] = experiment: Induction of apoptosis in human doxorubicin-resistant HepG2 cells expressing p-gp assessed as activation of caspase-3/8/9 at 25 uM after 24 hrs by Western blotting; type: functional, cell-based
HepG2 [16] = experiment: Effect on nonphosphorylated SAPK/JNK level in human doxorubicin-resistant HepG2 cells expressing p-gp at 25 uM by Western blot analysis; type: ADME, cell-based; details: hepg2, 25 µM

Cc1cccc2c3c(ccc12)C1=C(C(=O)C3=O)[C@@H](C)CO1 [DIHYDROTANSHINONE I]
Activity (HepG2 [1]): Non-toxic | inhibition [2]: inactive | Activity (HepG2 [3]): inactive | Activity (HepG2 [4]): Active | Activity (HepG2 [5]): Non-toxic | inhibition [6]: Active | Activity (HepG2 [7]): Active | Activity (HepG2 [8]): Non-toxic | Activity (HepG2 [9]): Non-toxic | Activity (HepG2 [10]): Active | inhibition [11]: Active | Activity (HepG2 [12]): Active | Activity (HepG2 [13]): Non-toxic | inhibition [14]: Active | Activity (HepG2 [15]): Active | Activity (HepG2 [16]): Non-toxic
